# According to PMC12498288 (Frontiers in Immunology, 2025):
# Where “and” joins values, the source holds several entries; their conditions need not be identical. Identical values can stand only once.
# Legend:
# [1] = test system: lymphocytes, T cells and B cells; test: RESPIRE Phase 2 trial, lymphocytes, T and B cells in blood (flow cytometry); type: in vivo, human; conditions: 30-day observation period
# Method: Patients receiving glucocorticoids as standard of care treatment were excluded from the analyses. Experiments were performed by CheckImmune GmbH according to the companies’ SOPs. In short, presence of lymphocytes, T cells and B cells were determined using Flow cytometry analysis. Fresh whole blood from hospitalized SARS-CoV-2 infected patients was stained with the aforementioned DuraClone antibody panels for 15 min at room-temperature and lysed for 15 min at room temperature following the standard staining protocol. Sample acquisition was carried out using the Navios Flow Cytometer (Beckman Coulter). Data analysis was conducted using Kaluza software before being sent to the LIMS system. This procedure is fit for purpose validated under ISO and GCP guidelines.
# [2] = set-up: method as in NCT04385420; EudraCT 2021-005225-25; conditions: two phase 1 studies in healthy volunteers, ref NCT04385420; EudraCT 2021-005225-25; cited from earlier work
# [3] = LDH cytotoxicity assay, CC50 determination on Calu-3 cells; type: cell-based; conditions: human
# Method: In short, 2x10^4 Calu-3 cells were seeded per well in 96-well cell culture plates in IMDM medium containing 10% FBS, 100 units/mL penicillin, and 100 µg/mL streptomycin two days before treatment. Prior to the treatment, the medium was removed, and the cells were washed once with PBS. The cells were subsequently treated in quadruplicates with 600, 500, 400, 350, 300, 250, 200, 150, or 100 µM zapnometinib dissolved in DMSO and diluted in IMDM medium containing 5% FBS, 100 units/mL penicillin, and 100 µg/mL streptomycin. The DMSO concentration upon treatment was 1%. A DMSO control was supplied with 1% DMSO (without zapnometinib). An untreated control (spontaneous LDH release control) was supplied with cell culture medium (5% FBS). Viability assessment with LDH assay was performed after 24 and 48 h treatment. Therefore, 10 µL 10X Lysis Buffer were added to one well of each quadruplicate treatment set (maximum LDH release control) and the plates were incubated 45 min at 37 °C and 5% CO2. […] After 30 min incubation in the dark at RT, 50 µL stop solution were added to the wells and the absorbance was read at 490 nm and 680 nm. The absorbance measured at 680 nm was subtracted from the absorbance at 490 nm and the %Viability was calculated using the following formula: […]
# SARS-CoV-1 = test: microbe, parasite or virus in culture; type: cell-based, SARS-CoV-1 (SARS-CoV-HKU-39849); conditions: Severe acute respiratory syndrome coronavirus, Vero
# [4] = test system: SARS-CoV-2 Omicron B1.1.592; test: microbe, parasite or virus in culture; type: cell-based; conditions: Severe acute respiratory syndrome coronavirus 2, Calu-3, 24 h
compound,measurement,setting,value
O=C(O)c1ccc(F)c(F)c1Nc1ccc(I)cc1Cl [zapnometinib],"Lymphocytes, Increase compared to Placebo",[1],44.5%
same,"Plasma B cells, Increase compared to Placebo",[1],61.8%
same,"Memory B cells, Increase compared to Placebo",[1]; p = 0.0377,-37.4%
same,"T cells, Increase compared to Placebo",[1]; p = 0.0409,73.7%
same,toxicity and tolerability in humans,[2],showed no toxicity and was well tolerated
same,CC50 at 24 h,[3]; 24 h treatment,532 µM and 218 µg/mL
same,CC50 at 48 h,[3]; 48 h treatment,471 µM and 193 µg/mL
same,EC50,SARS-CoV-1,33.6 µM and 13.8 µg/mL
same,EC50,[4],37.9 µM and 15.5 µg/mL
